Data on 1 compound can be found in patent publication US10159670B2, “Methods of diagnosing and treating motor neuron diseases and other cellular stress-related diseases” (priority 2012, dated 2018).

Each structure is given as a SMILES string.

For this experiment, the system named is Ago2 and Dicer protein interactions. Nature of the experiment: Targeted mass spectrometry of Ago2-Flag / Dicer-Flag interactions in HEK293 cells under stress. It counts as cell-based. The conditions noted are these: 0.5 mM, 60 min. How it is done: (FIG. 9A) The ratio of pre-miRNA to mature miRNA levels in NSC-34 cells, transfected with plasmids as indicated and in cells treated for 72 hrs with carrier alone (water, black) or with cycloheximide (CHX, 0.02 μg/ml, gray). Data normalized to control plasmid transfection. Pre-miRNAs further normalized to Gapdh (for FUS R495X, TDP-43 A315T) or to beta-actin (SOD1 G93A) and miRNA levels normalized to Snord68. Average of three independent experiments except for pre-miRNAs in the study of FUS R495X (n=2). Targeted quantitative mass spectrometry analysis of changes in the binding of Ago2 or Dicer to a set of proteins interactors under stress (FIGS. 9B-E). Immunoprecipitated Ago2-Flag (FIG. 9B) or Dicer-Flag (FIG. 9C) from HEK 293 cells, cultured under basal conditions or treated with sodium arsenite (0.5 mM, 60 min) was subjected to targeted mass-spectrometry analysis. Data is averaged from two or three different peptide standards per protein and normalized to the levels of co-immunoprecipiated peptides from untreated cells. Statistically significant result in a student t-test, between arsenite and control treatment is denoted (*p<0.05). Targeted mass spectrometry of (FIG. 9D) Dicer cofactors or (FIG. 9E) SG components, immunoprecipitated with AGO-Flag in FUS R495X-expressing HEK 293 that were further treated for 72 hrs with carrier alone or Cycloheximide (0.02 μg/ml). (FIG. 9F) The ratio of pre-miRNA to mature miRNA levels in mouse embryonic fibroblasts, pretreated for 5 hrs with HSP90 inhibitors (17-AAG, 1 μM or Geldanamycin, 1 μM) and then incubated for 36 more hours with Thapsigargin (5 nM) in combinations with the respective HSP90 inhibitor. Bars represent the average of three independent experiments. miRNA normalized to the expression levels of Snord70, and pre-miRNA normalized to Gapdh.
For mass-spectrometry, HEK293 that either stably express Ago2-FLAG (n=3 for each group) or Dicer-Flag transfected cells (48 hrs post-transfection, n=4 for each group) were untreated or stressed with 0.5 mM sodium arsenite for 60 minutes before harvest. IP was performed with the FLAG-IPT1 Kit (Sigma-Aldrich). Negative controls were HEK293 cells not containing a FLAG-construct. Samples containing the eluted proteins and the FLAG peptide were filtered using 3 kDa molecular weight cut-off spin columns (Amicon, Millipore). Buffer was exchanged to 50 mM ammonium bicarbonate (Sigma-Aldrich) in the same step. Proteins were reduced by addition of dithiothreitol (Sigma-Aldrich) to a final concentration of 5 mM and incubation for 30 minutes at 60° C., and alkylated with 10 mM iodoacetamide (Sigma-Aldrich) in the dark for 30 minutes at 21° C. The proteins were then digested using trypsin (Promega; Madison, Wis., USA) at a ratio of 1:50 (w/w trypsin/protein) for 16 hrs at 37° C. […]

In the case of `O=[As]O` [sodium arsenite], the “Ago2 and/or Dicer protein interactions with SG components eiF2S1, eIF3, eIF5a and with PCBP1, PCBP2” value is recorded as “increased Ago2 and/or Dicer protein interactions with SG components”; the “increase of Ago2 phosphorylation on serine-387” value is “more than 10 fold”; the “interaction of HSP90 and co-chaperone p23 with Dicer” value was “increased interaction with Dicer under stress”. For the same compound, where the note is “relative to basal conditions”, the “interactions of Ago2 with Dicer” value is on record as “enhanced interactions of Ago2 with Dicer”.
